From US20180193273A1, “PHARMACEUTICAL COMPOSITION COMPRISING AMLODIPINE AND DEXTROMETHORPHAN” (TSH BIOPHARM CORPORATION LTD., priority 2015, published 2018) come the findings set out here.

The nature of series [1]: Different excipients: potency and impurity of vial samples A1 to A25 after 60° C./75% RH for 2 weeks (HPLC). In kind it is physicochemical. The settings on record: glass vial sample.
Series [2] can be described thus: Compatibility study: drug potency and total impurity test of vial powder mixes after storage at 60° C./75% RH for 2 weeks (HPLC). Format: physicochemical. The settings on record: glass vial powder mix.

`CCOC(=O)C1=C(COCCN)NC(C)=C(C(=O)OC)C1c1ccccc1Cl` (stereo not drawn) [Sample A1, Amlodipine besylate]: the “Total impurity (%): NMT 1.00%” value in series [1] was 0.02%.
For the compound `CCOC(=O)C1=C(COCCN)NC(C)=C(C(=O)OC)C1c1ccccc1Cl` (stereo not drawn) [Table 1, Amlodipine besylate], in series [2], the “% Potency (Amlodipine besylate)” value stood at 100.2% and the Total impurity stood at 0.02.
